Like-named read-outs stand apart in the source and are kept apart here.
How the values were obtained:
CSF-1R = CSF-1R (Homo sapiens, UniProt P07333); assay: CSF-1R in vitro biochemical kinase study (ADP-Glo assay); details: 500 μM ATP, * = average of multiple tests, read-out: Enzymatic experiment CSF1R IC50
Experimental: A. CSF-1R In Vitro Biochemical Kinase Study
In the present invention, the inhibitory activity of compounds against the CSF-1R activity was determined by using CSF-1R ADP-Glo assay. The compound-mediated inhibition effect was achieved by inhibiting the production of ADP from consumption of ATP, and the activities of compounds were evaluated by using the ADP-Glo kit (Promega, cat. No. V9101). The specific experimental process was as follows:
1. The kinase reaction performed in the present invention was carried out in a 384-well plate (Perkinelmer, cat. No. 6007290), 3.95 nM of CSF-1R, 500 μM of ATP, and 0.2 mg/mL of polypeptide (Poly (Glu4, Try1), Sigma, cat. No. P0275) were respectively weighed and added to each well:
2. following reagents were then added to each well to reach the final reaction system: 40 mM Tris, pH 7.5, 20 mM MgCl2, 0.01% Triton X-100, 0.1 mg/mL BSA, 2.5 mM DTT, and 0.1% DMSO;
3. the reaction was conducted at 30° C. for 60 min;
4. then an equal volume of stop solution (ADP-Glo) was added to the kinase reaction system;
5. the mixed solution was incubated at 25° C. for 60 min, and the kinase reaction was then terminated;
6. a two-fold volume of detection reagent was then added to each well;
7. the mixed solution was incubated at 25° C. for 30 min;
8. the compound IC50 value was measured by using a plate reader (Tecan, M1000) and a four-parameter curve was generated in Graphpad Prism.

[1] = system: M-NFS-60 mouse myeloid leukemia lymphocytes; assay: CSF-1R-related cell proliferation experiment (Cell Titer Glo), M-NFS-60 cells with M-CSF; assay type: cell-based; details: Lymphocyte, 72 h, 3 days, CTG, * = average of multiple tests
Experimental: C. CSF-1R-Related Cell Proliferation Experiment
Functional effects of compounds on cell proliferation were evaluated by using Cell Titer Glo (CTG) study in the present invention. M-NFS-60 mouse myeloid leukemia lymphocytes (cat. No. CCBJ078) from National Institutes For Food and Drug Control were cultured in the incubator under conditions of RPMI 1640 (Gibco, cat. No. 11875-119), 10% fetal bovine serum (Gibco, 10099-141), human 10 ng/mL M-CSF macrophage colony-stimulating factor (R&D, cat. No. MVN0915101), 37° C., and 5% CO2. Since ATP is an index for viable cell metabolism, CTG (Promega, #G7573) reagent is a homogeneous detection method for detecting the number of viable cells in the culture by quantifying ATP. Therefore, compound-mediated inhibition for cell proliferation/survival was evaluated by quantifying ATP content in cells, and the specific experimental process was as follows:
1. The cells were plated into a tissue-culture-medium-treated 96-well plate (Costar #3904) with 5,000 cells/well/80 μL fresh culture medium;
2. 24 hours later, 10 μL culture medium containing testing compound with 10-fold of final concentration was added to each well;
3. 10 μL of culture medium containing M-CSF with 10-fold of the final concentration was then added to each well;
4. dosage effect was evaluated by testing the 3-fold serial dilutions of the compound;
5. after the cells were incubated for 3 days at 37° C. and 5% CO2, the inhibition on cell survival was quantified after 50 μL of CTG was added and the luminescence assay was performed;
6. the compound concentration leading to half maximal inhibitory (IC50) and the compound concentration leading to absolute half maximal inhibitory (Absolute IC50) were measured by a plate reader (M1000, Tecan) and a four-parameter curve fit in Graphpad Prism 7.

PDGFRA kinase = PDGFRA kinase (Homo sapiens, UniProt P16234); assay: PDGFRA in vitro biochemical kinase study (Caliper EZ Reader); details: Caliper mobility shift; read-out: Enzymatic experiment PDGFRA IC50
Sequence of PDGFRA kinase (P16234 24-1089): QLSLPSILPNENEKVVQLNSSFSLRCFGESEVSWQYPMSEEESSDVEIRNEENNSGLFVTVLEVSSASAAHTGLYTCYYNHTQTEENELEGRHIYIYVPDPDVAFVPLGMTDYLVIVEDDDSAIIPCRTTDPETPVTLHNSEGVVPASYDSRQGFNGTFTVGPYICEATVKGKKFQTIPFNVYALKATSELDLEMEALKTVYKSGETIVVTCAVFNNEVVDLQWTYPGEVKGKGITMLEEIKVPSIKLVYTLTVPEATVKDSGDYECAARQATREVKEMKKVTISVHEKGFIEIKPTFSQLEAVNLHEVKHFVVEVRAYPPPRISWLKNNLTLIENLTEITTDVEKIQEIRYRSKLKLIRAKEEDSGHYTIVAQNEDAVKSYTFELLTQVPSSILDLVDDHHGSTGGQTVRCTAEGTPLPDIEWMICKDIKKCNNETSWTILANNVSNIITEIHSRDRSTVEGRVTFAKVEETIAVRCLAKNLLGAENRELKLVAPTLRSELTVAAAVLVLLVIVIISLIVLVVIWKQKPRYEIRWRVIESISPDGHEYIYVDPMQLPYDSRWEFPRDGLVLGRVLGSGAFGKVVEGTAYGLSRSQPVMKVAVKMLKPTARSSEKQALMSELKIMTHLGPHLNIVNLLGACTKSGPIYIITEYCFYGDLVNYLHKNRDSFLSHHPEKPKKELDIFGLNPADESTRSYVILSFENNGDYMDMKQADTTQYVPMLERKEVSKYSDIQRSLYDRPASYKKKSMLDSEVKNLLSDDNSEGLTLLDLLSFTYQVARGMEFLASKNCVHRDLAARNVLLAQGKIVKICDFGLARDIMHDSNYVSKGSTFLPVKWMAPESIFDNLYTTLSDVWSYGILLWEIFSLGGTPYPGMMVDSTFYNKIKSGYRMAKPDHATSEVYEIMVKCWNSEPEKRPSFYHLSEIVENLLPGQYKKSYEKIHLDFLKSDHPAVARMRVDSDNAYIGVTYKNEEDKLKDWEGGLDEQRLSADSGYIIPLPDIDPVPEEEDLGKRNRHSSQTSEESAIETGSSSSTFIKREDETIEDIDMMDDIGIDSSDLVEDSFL
Experimental: (§1) B. KIT/PDGFRA In Vitro Biochemical Kinase Study
(§2) 1. Preparation of 1-Fold Kinase Buffer and Stop Solution
(§3) 1.2 stop solution: 100 mM HEPES, pH 7.5, 0.015% Brij-35, 0.2% Coating Reagent #3, 50 mM EDTA
(§4) 2. Preparation of Compound Solution
(§5) 2.1 Dilution of Compound Solution
(§6) 1) The final concentration of the compound solution was 40 μM, and the concentration of the prepared stock solution was 50 times of the final concentration, i.e., 2 mM.
(§7) 2) 80 μL of 100% DMSO was added to the second well of the 96-well plate, then 20 μL of 10 mM compound solution was added, and thereby 2 mM compound solution was prepared, 60 μL of 100% DMSO was added to other wells, 20 μL of compound was taken from the second well, added to the third well and diluted by 4 times. This serial 4-time dilution was conducted in sequence for the total of 10 concentrations.
(§8) 2.2 5-Fold Compound Solution Transferred to a Reaction Plate
(§9) 1) 10 μL of solution was taken from each well of the above 96-well plate and added to another 96-well plate, and 90 μL of kinase buffer was added.
(§10) 2) 5 μL of solution was taken from the above 96-well plate and added to a 384-well reaction plate.
(§11) 1) KIT/PDGFRA kinase was added to the 1-fold kinase buffer solution to obtain a 2.5-fold kinase solution.
(§12) 2) FAM-labeled polypeptide and ATP were added to the 1-fold kinase buffer solution to obtain a 2.5-fold substrate solution.
(§13) 3) 10 μL of 2.5-fold kinase solution was added to the 384-well reaction plate, which already contained 5 μL of 5-fold compound in 10% DMSO. And the mixed solution was incubated at room temperature for 10 min.
(§14) 4) 10 μL of 2.5-fold substrate solution was added to the 384-well reaction plate.
(§15) 5) Kinase reaction and termination: the mixed solution was incubated at 28° C. for a certain period of time, and 25 μL of stop solution was added to stop the reaction.
(§16) 2.4 Data Reading of Caliper EZ Reader II
(§17) 2.5 Calculation of Percent Inhibition and IC50
(§18) 1) Percent conversion data were copied from the Caliper EZ Reader. […]

KIT kinase = KIT kinase (Homo sapiens, UniProt P10721); assay: KIT in vitro biochemical kinase study (Caliper EZ Reader); details: Caliper mobility shift; read-out: Enzymatic experiment KIT IC50
Sequence of KIT kinase (P10721 26-976): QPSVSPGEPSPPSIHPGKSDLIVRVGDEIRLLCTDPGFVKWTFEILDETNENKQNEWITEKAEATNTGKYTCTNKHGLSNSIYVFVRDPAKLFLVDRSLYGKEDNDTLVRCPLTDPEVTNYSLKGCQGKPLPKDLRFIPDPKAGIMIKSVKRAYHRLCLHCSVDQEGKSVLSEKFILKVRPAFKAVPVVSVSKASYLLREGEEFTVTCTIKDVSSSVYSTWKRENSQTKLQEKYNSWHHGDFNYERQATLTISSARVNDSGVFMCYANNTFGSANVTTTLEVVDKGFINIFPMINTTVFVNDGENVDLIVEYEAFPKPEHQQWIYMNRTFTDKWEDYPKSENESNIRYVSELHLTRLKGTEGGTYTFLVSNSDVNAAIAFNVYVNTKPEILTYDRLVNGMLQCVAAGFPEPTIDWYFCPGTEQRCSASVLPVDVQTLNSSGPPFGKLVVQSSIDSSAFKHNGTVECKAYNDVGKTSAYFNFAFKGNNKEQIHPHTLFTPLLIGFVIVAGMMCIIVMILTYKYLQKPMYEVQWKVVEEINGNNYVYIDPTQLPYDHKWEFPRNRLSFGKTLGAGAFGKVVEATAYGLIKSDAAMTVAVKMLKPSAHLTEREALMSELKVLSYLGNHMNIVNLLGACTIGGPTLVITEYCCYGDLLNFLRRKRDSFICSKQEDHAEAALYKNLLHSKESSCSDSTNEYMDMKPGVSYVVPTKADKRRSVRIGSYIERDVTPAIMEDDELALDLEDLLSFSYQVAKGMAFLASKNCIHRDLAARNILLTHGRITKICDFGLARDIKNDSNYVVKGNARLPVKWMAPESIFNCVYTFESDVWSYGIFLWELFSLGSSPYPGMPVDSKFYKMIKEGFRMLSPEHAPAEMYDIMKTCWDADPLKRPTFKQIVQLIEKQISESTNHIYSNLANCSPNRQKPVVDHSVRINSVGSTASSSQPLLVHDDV
Experimental: as §1, §2, §3, §4, §5, §6, §7, §8, §9, §10, §11, §12, §13, §14, §15, §16, §17, §18

Sequence of CSF-1R (P07333 20-972): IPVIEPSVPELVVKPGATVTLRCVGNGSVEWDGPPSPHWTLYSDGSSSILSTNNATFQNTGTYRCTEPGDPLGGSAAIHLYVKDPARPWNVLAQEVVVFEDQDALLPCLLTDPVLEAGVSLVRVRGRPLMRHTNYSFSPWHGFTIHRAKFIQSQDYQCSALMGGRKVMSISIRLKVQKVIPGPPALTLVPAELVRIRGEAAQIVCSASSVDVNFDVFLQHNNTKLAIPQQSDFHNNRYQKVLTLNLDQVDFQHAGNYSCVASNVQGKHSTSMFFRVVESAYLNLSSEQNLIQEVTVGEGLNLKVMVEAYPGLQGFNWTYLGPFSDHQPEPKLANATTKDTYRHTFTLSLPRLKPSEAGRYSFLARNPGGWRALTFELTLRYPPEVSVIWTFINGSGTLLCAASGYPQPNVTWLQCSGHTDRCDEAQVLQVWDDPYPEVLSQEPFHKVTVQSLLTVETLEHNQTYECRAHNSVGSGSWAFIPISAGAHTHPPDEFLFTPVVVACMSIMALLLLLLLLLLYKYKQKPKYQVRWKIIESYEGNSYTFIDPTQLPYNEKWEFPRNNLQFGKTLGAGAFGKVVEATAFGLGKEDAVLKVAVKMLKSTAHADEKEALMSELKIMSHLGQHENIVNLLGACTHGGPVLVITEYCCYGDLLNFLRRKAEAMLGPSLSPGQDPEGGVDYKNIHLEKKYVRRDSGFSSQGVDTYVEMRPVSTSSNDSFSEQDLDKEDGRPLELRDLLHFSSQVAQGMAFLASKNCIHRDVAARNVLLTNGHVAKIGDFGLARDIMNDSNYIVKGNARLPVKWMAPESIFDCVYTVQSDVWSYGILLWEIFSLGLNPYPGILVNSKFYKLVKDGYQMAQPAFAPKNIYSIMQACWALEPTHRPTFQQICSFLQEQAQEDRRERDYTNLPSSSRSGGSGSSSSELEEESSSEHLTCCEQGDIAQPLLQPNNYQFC

IC50 (CSF-1R): 95.2 nM
IC50 ([1]; read-out: Cytological experiment CSF1R IC50): 127 nM
IC50 ([1]; absolute half maximal inhibition, read-out: Cytological experiment CSF-1R Absolute IC50): 114 nM
IC50 (PDGFRA kinase): 226 nM
IC50 (KIT kinase): 22.6 nM
Compound: Cc1nc(-c2cnc3n(c2=O)CCCN3C(C)C)ccc1Oc1ccnc(-c2cnn(C)c2)c1 [Example 5, 9-isopropyl-3-(6-methyl-5-((2-(1-methyl-1H-pyrazol-4-yl)pyridin-4-yl)oxy)pyridin-2-yl)-6,7,8,9-tetrahydro-4H-pyrimido[1,2-a]pyrimidin-4-one]
